{"source": "patent US8318804B2", "about": "(priority 2007, dated 2012)", "key": {"[1]": {"test_system": "influenza virus strain A/Wyoming/03/2003 (H3N2)", "assay_type": "cell-based, influenza A virus in MDCK cells"}, "[2]": {"test_system": "A/WY/03/2003 (H3N2) influenza virus", "assay_type": "cell-based, influenza A virus in MDCK cells"}, "A/WY/03/2003": {"test_system": "A/WY/03/2003", "assay_type": "cell-based, influenza A virus in MDCK cells"}, "influenza virus": {"test_system": "influenza virus", "assay_type": "cell-based, influenza virus in MDCK cells"}}, "data": [{"compound": "CCOC(=O)C([C@H]1C=C[C@@H](O)C1)[N+](=O)[O-]", "note": "(stereo partly drawn) [EHCN, ethyl-(2R/S, 1′R,4′S)-2-(4′-hydroxy-2′-cyclopenten-1′-yl)-2-nitroacetate]", "values": [{"measurement": "cytopathic effect (CPE) observed under the microscope", "setting": "[1]", "value": "did not present complete CPE"}, {"measurement": "protection (cell viability assay)", "setting": "[2]", "value": 75, "unit": "%"}, {"measurement": "EC50 against A/WY/03/2003", "setting": "A/WY/03/2003", "value": 4.5, "unit": "µg/mL"}, {"measurement": "plaque formation / antiviral activity in plaque reduction assay", "setting": "influenza virus", "value": "fewer and smaller plaques than the untreated wells"}]}]}
